Test results published in patent US20090081279A1, “Skin Dressings” (priority 2005, published 2009).

What was measured:
[1] = Stability of GSNO in dried PVA layer; assay type: physicochemical; conditions: in the dried layer of PVA, especially if stored in a moisture-free atmosphere
Procedure: In one preferred embodiment of this type, the dressing comprises a layer of dried PVA containing pre-generated S-nitrosothiol. The layer is formed from PVA, a source of nitrite (preferably potassium nitrite) and a thiol (preferably L-glutathione). In a typical example of this embodiment both of these additives are added to the PVA solution prior to the drying. S-nitrosothiol (GSNO in the preferred case) is generated within the layer during the drying step. Nitrosothiols are known to be rather unstable in aqueous solutions. Nevertheless, GSNO was found very stable in the dried layer of PVA, especially if stored in a moisture-free atmosphere.

moist skin = assay: Skin reddening (dermal vasodilation) after applying dried PVA layer with pre-generated GSNO onto moist skin; assay type: in vivo
Excerpt: GSNO can be released from the layer simply by applying the layer onto a moist surface (e.g. wound bed). Once released, GSNO undergoes a slow decomposition to generate nitric oxide. The release of GSNO from the layer is relatively rapid.

[2] = under normal conditions; cited from earlier work
[3] = Effect of pH on production/decomposition of GSNO in aqueous solution of potassium nitrite and L-glutathione; assay type: physicochemical
Procedure: The following reagents were prepared: • Reagent 1: Na-phosphate buffer (pH 7.4, 0.1 M) • Reagent 2: Griess reagent: 20 mg of N-(1-Naphthyl)ethylendiamine dihydrochloride (NADD)+500 mg of sulphanilamide dissolved in 2 mL of DMSO. (N.B. This solution is light sensitive and should be kept in the dark as much as possible) • Reagent 3: Mercuric chloride (10 mM) in DMSO (13.58 mg of HgCl2 in 5 mL of DMSO)
The six-step procedure set out below was then followed: • 1. Dispense 1.5 mL of Reagent 1 into a plastic cuvette • 2. Add 200 μL of the sample (i.e. sample in which GSNO concentration is to be determined) • 3. Add 1.17 mL of DI water • 4. Add 100 μL of Reagent 2 • 5. Add 30 μL of Reagent 3 and give the solution a good mix • 6. Read absorbance of the resulting mixture at 496 nm in 10 min.
The concentration of GSNO can be calculated from the absorbance reading using the molar absorption coefficient for GSNO=12,500 M^−1 cm^−1.
The rate of the GSNO production and subsequent decomposition in solutions containing potassium nitrite (5 mM) and L-glutathione (5 mM) was studied at pH 3 (citrate-phosphate buffer, 0.1 M), pH 5 (citrate-phosphate buffer, 0.1 M) and pH 7 (phosphate buffer, 0.1 M).

[4] = under normal conditions; cited from earlier work; remark: listed apart in the source

Structure (SMILES) | Stability of GSNO [1] | Reversibility of skin reddening (moist skin; after removal of the patch) | Time to reddening of the skin due to dermal vasodilation (moist skin; dried PVA layer with pre-generated GSNO applied onto moist skin) | Time to total (100%) decomposition [2] | Stability of GSNO produced ([3]; pH 5 compared with pH 3) | Initial production of GSNO ([3]; pH 5 compared with pH 3 (citrate-phosphate buffer, 0.1 M)) | Production of GSNO ([3]; pH 7 (phosphate buffer, 0.1 M), potassium nitrite 5 mM, L-glutathione 5 mM) | Maximum solubility in water [4]
N[C@@H](CCC(=O)N[C@@H](CSN=O)C(=O)NCC(=O)O)C(=O)O [GSNO, S-nitrosoglutathione] | very stable | totally reversible | ≤ 1 min | hours/days | slightly higher at pH 5 compared with that at pH 3 | slower at pH 5 compared with pH 3 | No production | –
[N]=O [NO, Nitric oxide] | – | – | – | – | – | – | – | approximately 1.7 mM
